Assay results: PubChem BioAssay AID258 (DTP/NCI, 2004)
“And” between values parts separate entries of the source, which are not always exact repeats. Equal entries are not always repeated. Toxic doses and inconclusive results are not listed.

Tested on: CD2F1 mice, L1210 leukemia sc, survival T/C
Experiment: NCI In Vivo Anticancer Drug Screen. Data for tumor model L1210 Leukemia (subcutaneous) in CD2F1 (CDF1) mice
Conditions: endpoint: median survival time, higher = longer survival
Method in brief: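 Antitumor activity is scored in tumor-bearing mice by comparing survival or tumor size of treated animals against vehicle-treated controls, reported as T/C.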

O=NN(CCCl)C(=O)NCCCl
T/C (dose: 0.25 mg/kg/injection, schedule: Q01DX009 (ip), vehicle: saline + alcohol): 108 % of control
T/C (dose: 0.25 mg/kg/injection, schedule: Q01DX009 (sc), vehicle: saline + alcohol): 100 % of control and 107 % of control
T/C (dose: 0.5 mg/kg/injection, schedule: Q01DX009 (ip), vehicle: saline + alcohol): 121 % of control
T/C (dose: 0.5 mg/kg/injection, schedule: Q01DX009 (sc), vehicle: saline + alcohol): 112 % of control and 98 % of control
T/C (dose: 0.88 mg/kg/injection, schedule: Q01DX009 (ip), vehicle: saline + alcohol): 121 % of control
T/C (dose: 0.9 mg/kg/injection, schedule: Q01DX009 (ip), vehicle: saline + alcohol): 112 % of control
T/C (dose: 1.0 mg/kg/injection, schedule: Q01DX009 (sc), vehicle: saline + alcohol): 108 % of control and 124 % of control
T/C (dose: 1.8 mg/kg/injection, schedule: Q01DX009 (ip), vehicle: saline + alcohol): 120 % of control
T/C (dose: 1.8 mg/kg/injection, schedule: Q01DX Z (sc), vehicle: saline): 243 % of control
T/C (dose: 2.0 mg/kg/injection, schedule: Q01DX009 (ip), vehicle: saline + alcohol): 159 % of control and 192 % of control
T/C (dose: 3.0 mg/kg/injection, schedule: Q01DX Z (sc), vehicle: saline): 512 % of control
T/C (dose: 4.0 mg/kg/injection, schedule: Q01DX009 (ip), vehicle: saline + alcohol): 187 % of control and 219 % of control
T/C (dose: 5.0 mg/kg/injection, schedule: Q01DX Z (sc), vehicle: saline): 300 % of control
T/C (dose: 5.0 mg/kg/injection, schedule: Q07DX Z (sc), vehicle: saline): 150 % of control
T/C (dose: 5.3 mg/kg/injection, schedule: Q01DX009 (sc), vehicle: saline + alcohol): 314 % of control
T/C (dose: 5.33 mg/kg/injection, schedule: Q01DX009 (ip), vehicle: saline + alcohol): 222 % of control
T/C (dose: 5.33 mg/kg/injection, schedule: Q01DX009 (sc), vehicle: saline + alcohol): 203 % of control
T/C (dose: 7.0 mg/kg/injection, schedule: Q01DX009 (ip), vehicle: saline + alcohol): 167 % of control and 184 % of control
T/C (dose: 8.0 mg/kg/injection, schedule: Q01DX009 (ip), vehicle: saline + alcohol): 179 % of control and 243 % of control
T/C (dose: 8.4 mg/kg/injection, schedule: Q01DX001 (sc), vehicle: saline): 212 % of control
T/C (dose: 8.4 mg/kg/injection, schedule: Q01DX017 (ip), vehicle: none): 333 % of control
T/C (dose: 8.4 mg/kg/injection, schedule: Q01DX017 (sc), vehicle: saline): 316 % of control
T/C (dose: 8.4 mg/kg/injection, schedule: Q01DX Z (sc), vehicle: saline): 256 % of control
T/C (dose: 8.4 mg/kg/injection, schedule: Q07DX Z (sc), vehicle: saline): 293 % of control
T/C (dose: 12.0 mg/kg/injection, schedule: Q01DX009 (sc), vehicle: saline + alcohol): 151 % of control and 205 % of control
T/C (dose: 14.0 mg/kg/injection, schedule: Q01DX001 (sc), vehicle: saline): 300 % of control
T/C (dose: 14.0 mg/kg/injection, schedule: Q01DX009 (ip), vehicle: saline + alcohol): 116 % of control
T/C (dose: 14.0 mg/kg/injection, schedule: Q01DX017 (ip), vehicle: none): 588 % of control
T/C (dose: 14.0 mg/kg/injection, schedule: Q01DX017 (sc), vehicle: saline): 388 % of control
T/C (dose: 14.0 mg/kg/injection, schedule: Q01DX Z (sc), vehicle: saline): 212 % of control
T/C (dose: 14.0 mg/kg/injection, schedule: Q07DX Z (sc), vehicle: saline): 600 % of control
T/C (dose: 16.0 mg/kg/injection, schedule: Q01DX009 (sc), vehicle: saline + alcohol): 160 % of control
T/C (dose: 23.0 mg/kg/injection, schedule: Q01DX001 (sc), vehicle: saline): 343 % of control
T/C (dose: 23.0 mg/kg/injection, schedule: Q01DX017 (ip), vehicle: none): 731 % of control
T/C (dose: 23.0 mg/kg/injection, schedule: Q01DX017 (sc), vehicle: saline): 733 % of control
T/C (dose: 23.0 mg/kg/injection, schedule: Q07DX Z (sc), vehicle: saline): 331 % of control
T/C (dose: 32.0 mg/kg/injection, schedule: Q01DX009 (ip), vehicle: saline + alcohol): 98 % of control
T/C (dose: 32.0 mg/kg/injection, schedule: Q01DX009 (sc), vehicle: saline + alcohol): 102 % of control and 124 % of control
T/C (dose: 39.0 mg/kg/injection, schedule: Q01DX001 (sc), vehicle: saline): 243 % of control
T/C (dose: 39.0 mg/kg/injection, schedule: Q01DX017 (ip), vehicle: none): 511 % of control
T/C (dose: 39.0 mg/kg/injection, schedule: Q01DX017 (sc), vehicle: saline): 500 % of control
T/C (dose: 39.0 mg/kg/injection, schedule: Q07DX Z (sc), vehicle: saline): 200 % of control
T/C (dose: 65.0 mg/kg/injection, schedule: Q01DX001 (sc), vehicle: saline): 162 % of control

CCOC(=O)c1c[nH]c2oc(/C=N/N3CC(CN4CCOCC4)OC3=O)cc2c1=O (stereo not given)
T/C (dose: 25.0 mg/kg/injection, schedule: Q01DX009 (ip), vehicle: acid diluted with saline): 101 % of control
T/C (dose: 50.0 mg/kg/injection, schedule: Q01DX009 (ip), vehicle: acid diluted with saline): 109 % of control
T/C (dose: 50.0 mg/kg/injection, schedule: Q01DX009 (ip), vehicle: other): 102 % of control
T/C (dose: 79.0 mg/kg/injection, schedule: Q01DX005 (ip), vehicle: other): 108 % of control and 111 % of control
T/C (dose: 100.0 mg/kg/injection, schedule: Q01DX009 (ip), vehicle: acid diluted with saline): 110 % of control
T/C (dose: 118.7 mg/kg/injection, schedule: Q01DX005 (ip), vehicle: other): 109 % of control and 119 % of control
T/C (dose: 178.0 mg/kg/injection, schedule: Q01DX005 (ip), vehicle: other): 113 % of control
T/C (dose: 200.0 mg/kg/injection, schedule: Q01DX009 (ip), vehicle: acid diluted with saline): 155 % of control
T/C (dose: 400.0 mg/kg/injection, schedule: Q01DX005 (ip), vehicle: other): 198 % of control
T/C (dose: 400.0 mg/kg/injection, schedule: Q01DX009 (ip), vehicle: acid diluted with saline): 156 % of control

C[C@@](O)(/C=C/[C@H]1CC=CC(=O)O1)[C@@H](C[C@@H](O)\C=C/C=C\C=C\CO)OP(=O)(O)O
T/C (dose: 0.78 mg/kg/injection, schedule: Q01DX009 (ip), vehicle: other): 104 % of control
T/C (dose: 1.56 mg/kg/injection, schedule: Q01DX009 (ip), vehicle: other): 116 % of control
T/C (dose: 3.13 mg/kg/injection, schedule: Q01DX009 (ip), vehicle: other): 157 % of control
T/C (dose: 6.25 mg/kg/injection, schedule: Q01DX009 (ip), vehicle: other): 197 % of control

CC[n+]1c(-c2ccccc2)c2cc(N)ccc2c2ccc(N)cc21
T/C (dose: 5.0 mg/kg/injection, schedule: Q01DX Z (sc), vehicle: carboxymethylcellulose (CMC)): 100 % of control
T/C (dose: 8.4 mg/kg/injection, schedule: Q01DX Z (sc), vehicle: carboxymethylcellulose (CMC)): 94 % of control
T/C (dose: 14.0 mg/kg/injection, schedule: Q01DX Z (sc), vehicle: carboxymethylcellulose (CMC)): 100 % of control
T/C (dose: 23.0 mg/kg/injection, schedule: Q01DX Z (sc), vehicle: carboxymethylcellulose (CMC)): 100 % of control
T/C (dose: 39.0 mg/kg/injection, schedule: Q01DX Z (sc), vehicle: carboxymethylcellulose (CMC)): 105 % of control
T/C (dose: 64.0 mg/kg/injection, schedule: Q01DX Z (sc), vehicle: carboxymethylcellulose (CMC)): 111 % of control

Nc1n[nH]c(N)n1
T/C (dose: 259.0 mg/kg/injection, schedule: Q01DX Z (sc), vehicle: water): 100 % of control
T/C (dose: 432.0 mg/kg/injection, schedule: Q01DX Z (sc), vehicle: water): 113 % of control
T/C (dose: 720.0 mg/kg/injection, schedule: Q01DX Z (sc), vehicle: water): 118 % of control
T/C (dose: 1200.0 mg/kg/injection, schedule: Q01DX Z (sc), vehicle: water): 122 % of control

CNCCN=c1ccc2c3c1c(O)c1c(O)ccc(=O)c1c3[nH]n2CCNCCO
T/C (dose: 1.08 mg/kg/injection, schedule: Q01DX009 (ip), vehicle: water): 117 % of control
T/C (dose: 3.0 mg/kg/injection, schedule: Q01DX009 (ip), vehicle: water): 206 % of control
T/C (dose: 5.0 mg/kg/injection, schedule: Q01DX009 (ip), vehicle: water): 124 % of control
T/C (dose: 8.3 mg/kg/injection, schedule: Q01DX009 (ip), vehicle: water): 89 % of control

C[C@]12C=CC(=O)C=C1CC[C@@H]1[C@@H]2C(=O)C[C@@]2(C)[C@H]1CC[C@]2(O)C(=O)CO
T/C (dose: 180.0 mg/kg/injection, schedule: Q01DX Z (sc), vehicle: water): 122 % of control
T/C (dose: 180.0 mg/kg/injection, schedule: Q02DX Z (sc), vehicle: water): 154 % of control
T/C (dose: 500.0 mg/kg/injection, schedule: Q#A X Z (sc), vehicle: water): 122 % of control

c1ccc(CNc2ncnc3[nH]ncc23)cc1
T/C (dose: 8.4 mg/kg/injection, schedule: Q01DX Z (sc), vehicle: methylcellulose (MC)): 105 % of control
T/C (dose: 14.0 mg/kg/injection, schedule: Q01DX Z (sc), vehicle: methylcellulose (MC)): 100 % of control
T/C (dose: 23.0 mg/kg/injection, schedule: Q01DX Z (sc), vehicle: methylcellulose (MC)): 100 % of control
T/C (dose: 39.0 mg/kg/injection, schedule: Q01DX Z (sc), vehicle: methylcellulose (MC)): 100 % of control
T/C (dose: 65.0 mg/kg/injection, schedule: Q01DX Z (sc), vehicle: methylcellulose (MC)): 111 % of control
T/C (dose: 108.0 mg/kg/injection, schedule: Q01DX Z (sc), vehicle: methylcellulose (MC)): 122 % of control
